In patent EP0099122A2, “Compositions comprising pepstatin and an histamine H2-receptor antagonist having an enhanced antiulcer activity” (Bristol-Myers Company, priority 1982, dated 1984):
Like-named read-outs stand apart in the source and are kept apart here.

What was measured:
Gastric Fistula Rat = assay: Gastric antisecretory activity in the Gastric Fistula Rat; assay type: in vivo, Long Evans rats; details: sc; for ED50: Rattus norvegicus, read-out: ED50 sc
Method: Determination of Gastric Antisecretory Activity in the Gastric Fistula Rat
Male Long Evans rats weighing about 240-260 grams at the time of cannula implantation are used. […] The fistula components are designed and the operative procedure is carried out exactly as described in the above reference. Post operatively the animals are individually housed in solid bottom cages with sawdust and are allowed food and water ad libitum throughout the entire recovery period. Animals are not used for test purposes for at least 15 days after the operative procedure.
The animals are fasted but allowed water ad libitum for 20 hours before the testing procedure is to begin. Immediately prior to collection, the cannula is opened and the. stomach washed gently with 30-40 mL of warm saline or distilled water to remove any residual contents. The catheter is then screwed into the cannula in place of the plugging screw and the rat is placed in a clear plastic rectangular cage measuring 40 cm long, 15 cm wide and 13 cm high. The bottom of the cage has a slit approximately 1.5 cm wide and 25 cm long running down the center to accommodate the catheter which hangs through it. In this way the rat is not restricted and can move -freely about the cage during collection periods. The remainder of the assay is carried out as described by Ridley et al. [Research Comm. Chem. Path.
Gastric secretions collected during the first hour after washing the stomach are discarded as they may be contaminated. For oral evaluation, the catheter is then removed from the cannula and replaced with the plugging screw. Water (2 mL/kg) is administered orally via gastric intubation and the animal is returned to the cage for 45 minutes. After this time the plugging screw is removed and replaced with a catheter to which a small plastic vial has been attached to collect the gastric secretions. A two hour sample is collected (this represents the control secretion), the catheter removed and.replaced with the plugging screw. The test drug is now administered orally in a volume of 2 mL/kg via gastric intubation. Forty-five minutes later the plugging screw is again removed, replaced with the catheter attached to a small plastic vial and another 2 hour sample is collected. The secretions in the second sample are compared to those of the control sample in order to determine thee effects of the test drug.
When test compounds are to be evaluated parenterally, the animal is injected ip or sc with the test compound vehicle in a volume of 2 mL/kg immediately after discarding the initial 60 minute collection. A two hour sample is collected (control secretion) and the animals are injected either ip or sc with the test compound in a volume of 2 mL/kg. An additional two hour sample is collected and its secretions are compared to those of the control period to determing drug effects.
The samples are centrifuged in a graduated tube for volume determination. Titratable acidity is measured by titrating a one mL sample to pH 7.0 with 0.02N NaOH, using an Autoburet and an electrometric pH meter (Radiometer). Titratable acid output is calculated in microequivalents by multiplying the volume in milliliters by the acid concentration in milliequivalents per liter.
Results are expressed as percent inhibition relative to control readings. Dose response curves are constructed and ED50 values are calculated by regression analyses. At least three rats are used at each dosage level and a minimum of three dosage levels are utilized for determination of a dose response curve.

gastric acid secretion [1] = assay: Inhibition of gastric acid secretion relative to cimetidine, oral route, dog; assay type: in vivo
Method: (§1) In the tests described below, gastric erosions produced in rats by the oral instillation of 1.0 mL of 0.75N HC1 were compared with those in rats which had been pretreated with the most preferred compound of Formula I (of Example 1) or with that compound and pepstatin. Comparison tests utilizing pretreatment with the newer commercial product, ranitidine, and with ranitidine and pepstatin, are also shown. Ranitidine is about 4 and 6 times as potent as cimetidine as an inhibitor of gastric acid secretion by the oral route in the rat and dog, respectively.

gastric acid secretion [2] = assay: Inhibition of gastric acid secretion relative to cimetidine, oral route, rat; assay type: in vivo
Method: as §1

[3] = test system: HCl-Induced Formation of Gastric Lesions; assay: HCl-induced gastric erosions in rats (modified method of Robert et al.); assay type: in vivo, Long Evans rats; details: compound alone versus compound plus pepstatin (20 mg/kg po)
Method: as §1
A modification of the method of Robert et al., [Gastroenterology, 77, 433-443 (1979)] was employed to produce gastric erosions. Adult male, Long Evans rats weighing 280-300 g (Blue Spruce Farms, Alton, New York) were used. The animals were individually caged and food and water were removed 24 and 18 hours, respectively, prior to testing. On the following day, the test compound was administered orally to the animals 30 minutes before 1.0 mL of 0.75N HC1 was instilled into the stomach by gavage. Animals treated with the combination of the test compound and pepstatin received the test compound 30 minutes before, and a fixed amount of pepstatin (20 mg/kg po) 10 minutes before, the hydrochloric acid was administered. […] One hour after receiving the HC1 solution, the animals were sacrificed with an intraperitoneal injection of 0.2 mL of T-61®, a euthanasia solution (National Laboratories Corp.).
The stomachs were removed from the animals, cut along the greater curvature, opened, rinsed with saline and pinned out flat in a standard position for macroscopic examination and scoring of erosions. The stomachs were photographed with a Polaroid® Close Up camera (Polaroid Corporation) and scoring was determined from the photographs. For scoring purposes, only those erosions with a minimum length of 1 mm were considered. The severity of gastric ulceration was defined for each animal as the sum of the maximum continuous lengths (in mm) of the erosions satisfying the above criteria. Percent inhibition of lesion formation was defined as
(mm erosion, vehicle control') - (mm erosion, test agent) 100. (mm erosion, vehicle control)
Data were analyzed using the t-test for unpaired data' and ED50 values were calculated from the dose response data using probit analysis [Finney, Probit Analysis, 3rd ed., University Press, Cambridge, England (1971)].
The compound of Example 1 and ranitidine (synthesized by the Medicinal Chemistry Research Department of Bristol Laboratories, Division of.Bristol-Myers Company) were dissolved in one equivalent of HC1 and the pH adjusted to 5.5 with NaOH. A suspension of pepstatin (Banyu Pharmaceutical Co. Ltd.) in water was made by homogenizing the compound with a few drops of Tween-80® (Atlas Chemical Industries). Each of these compounds were administered orally by gavage in a volume of 2 mL/kg.

Heidenhain Pouch Dog = assay: Gastric antisecretory activity in the Heidenhain Pouch Dog; assay type: in vivo, dogs; details: 95% confidence limits in parentheses; for ED50: Canis lupus familiaris
Method: Determination of Gastric Antisecretory […] in the Heidenhain Pouch Dog Prior to surgery, hematology and blood chemistry profiles are obtained and an assessment made as to the general health of selected female dogs. Dogs are vaccinated with Tissue […]-Moore) and housed in general animal quarters for four weeks' observation so incipient diseases may become apparent. Dogs are fasted with water ad libitum 24 hours prior to surgery. […] Subsequent anesthesia is maintained with methoxy- flurane (Pitman-Moore). A mid-line linea alba incision from xiphoid to umbilicus provides good exposure and ease of closure. The stomach is pulled up into the operative fields the greater curvature stretched out at multiple points and clamps placed along the selected line of incision. The pouch is made from the corpus of the stomach so that true parietal cell juice is obtained. About 30% of the corpus volume is resected. The cannula is made of light-weight, biologically-inert material such as nylon or Delrin with dimensions and attachments after DeVito and […] fJ. Appl. Physiol., 14, 138 (1959)]. Post operatively, dogs are medicated with antibiotics and an analgesic. They are allowed 2-3 months for recovery. Experiments are carried out in the following way: […] The dogs are placed in a sling and a saphenous vein cannulated for drug administration. Histamine as the base (100 μg/kg/hr) and chlorpheniramine maleate (0.25 mg/kg/hr) are infused continuously (in a volume of 6 mL/hr) with a Harvard infusion pump. Ninety minutes' infusion are allowed for the dogs to reach a steady state of acid output. At this time the drug or normal saline (control) is administered concomitantly with the secretagogue in a volume of 0.5 mL/kg over a 30 second period. When oral studies are to be carried out, the drug is administered via gastric gavage in a volume of 5 mL/kg. Infusion of the secretagogue is continued and 15 minute samples of the gastric juice are taken for 4.5 hours. Each sample is measured to the nearest 0.5 mL and titratable acidity is determined by titrating a 1 mL sample to pH 7.0 with 0.2N NaOH, using an Autoburet and an electrometric pH meter '(Radiometer). Titratable acid output is calculated in microequivalents by multiplying the volume in milliliters by the acid concentration in milliequivalents per liter. Results are expressed as percent inhibition relative to control readings. Dose response curves are constructed and ED50 values are calculated by regression analyses. From 3 to 5 dogs are used at each dose level and a minimum of three dosage levels are utilized for determination of a dose response curve.

gastric acid secretion [4] = assay: Inhibition of gastric acid secretion relative to cimetidine, various animal studies; assay type: in vivo; details: inhibitors of gastric acid secretion, oral route
Method: Based on this potency difference, the oral dosage of the compounds of Examples 1 and 9 would be about 1/20 to 1/25 that of cimetidine, thus reducing the expected incidence of side effects. The usual oral dosage of cimetidine is 300 mg, given four times a day, while the usual dosage of the compounds of Examples 1 and 9 is about 12-15 mg, given four times a day. It was an object of this invention to further reduce the necessary dosage of the compounds of Formula I by the concomitant administration of a peptic activity- inhibitory amount of pepstatin. As will be shown below, such concomitant administration provides about a three-fold increase in potency compared with the administration of an equal amount of the compound of Formula I alone, thus permitting a further three-fold reduction in the dosage of the compound of Formula I.

[5] = 95% confidence limits in parentheses

| SMILES | ED50 (Gastric Fistula Rat; [5]) [µmol/kg] | Potency Ratio [cimetidine = 1.0] (Gastric Fistula Rat; [5]) | also measured |
| --- | --- | --- | --- |
| CN(C)Cc1ccc(CSCCNc2c(N)c(=O)c2=O)s1 [Example 3, 1-Amino-2-{2-[(5-dimethylaminomethyl-2-thienyl)methylthio]ethyl-amino}cyclobutene-3,4-dione] | ~4 | ~1 | – |
| Nc1c(NCCCOc2cccc(CN3CCCCCCCC3)c2)c(=O)c1=O [Example 10m, 1-amino-2-[3-(3-octamethyleneiminomethylphenoxy)propylamino]-cyclobutene-3,4-dione] | 0.7 | 5.4 (2.1-12) | – |
| CNC(=C[N+](=O)[O-])NCCSCc1ccc(CN(C)C)o1 [Ranitidine, ranitidine] | – | – | times as potent as cimetidine as an inhibitor of gastric acid secretion (gastric acid secretion [1]): ~6; times as potent as cimetidine as an inhibitor of gastric acid secretion (gastric acid secretion [2]): about 4; Potency Ratio [3]: 1.18 |
| CNc1c(NCCCOc2cccc(CN3CCCCC3)c2)c(=O)c1=O [Example 11, 1-Methylamino-2-[3-(3-piperidinomethylphenoxy)propylamino]cyclobutene-3,4-dione] | 0.067 | 50 (15-169) | – |
| C#CCNc1c(NCCCOc2cccc(CN3CCCCC3)c2)c(=O)c1=O [Example 14d] | 0.031 | 124 (62-243) | – |
| Nc1c(NCCCOc2cccc(CN3CCCCCCC3)c2)c(=O)c1=O [Example 10j, 1-amino-2-[3-(3-heptamethyleneiminomethylphenoxy)propylamino]-cyclobutene-3,4-dione] | 0.044 | 88 (36-211) | – |
| CN(C)Cc1ccc(CSCCNc2c(N)c(=O)c2=O)o1 [Example 2, 1-Amino-2-{2-[(5-dimethylaminomethyl-2-furyl)methylthio]ethyl-amino}cyclobutene-3,4-dione] | < 1 | >4 | Potency Ratio [cimetidine = 1.0] (Heidenhain Pouch Dog; INTRAVENOUS): ~20 |
| O=c1c(NCCCOc2cccc(CN3CCCCC3)c2)c(NCc2cccnc2)c1=O [Example 12, 2-[3-(3-Piperidinomethylphenoxy)propylamino]-l-(3-pyridyl)methyl-aminocyclobutene-3,4-dione] | 0.094 | 44 (22-90) | – |
| CN(C)Cc1cccc(OCCCNc2c(N)c(=O)c2=O)c1 [Example 9, 1-Amino-2-[3-(3-dimethylaminomethylphenoxy)propylamino]cyclobutene-3,4-dione] | 0.055 | 61 (20-204) | times more potent than cimetidine (gastric acid secretion [4]): 20-25; Potency Ratio [cimetidine = 1.0] (Heidenhain Pouch Dog; INTRAVENOUS): ~40; Potency Ratio [cimetidine = 1.0] (Heidenhain Pouch Dog; ORAL): ~20 |
| CN/C(=N/CCSCc1nc[nH]c1C)NC#N [Cimetidine, cimetidine, reference compound] | – | – | ED50 (Heidenhain Pouch Dog; INTRAVENOUS): 2.18 µmol/kg; ED50 (Heidenhain Pouch Dog; ORAL): 3.29 µmol/kg; ED50 (Gastric Fistula Rat): 3.8 µmol/kg |
| Nc1c(NCCCOc2cccc(CN3CCCCCC3)c2)c(=O)c1=O [Example 10i, 1-amino-2-[3-(3-hexamethyleneiminomethylphenoxy)propylamino]-cyclobutene-3,4-dione] | 0.08 | 48 (21-97) | Potency Ratio [cimetidine = 1.0] (Heidenhain Pouch Dog; INTRAVENOUS): >40 |
